Patent publication US9795695B2, “Process for the preparation of gadobenate dimeglumine complex in a solid form” (BRACCO IMAGING S.p.A., priority 2009, dated 2017)

Assay: dissolution of the solid form in water
Type: physicochemical
Conditions: for time for dissolution in water: room temperature

Row | Structure (SMILES) | ease of dissolution (in words) (aqueous solution) | water required to dissolve 1 g of product (per 1 g of product, room temperature (20° C. to 30° C.)) | time for dissolution in water | time for dissolution in water (listed as powdered gadobenate)
1 | CNC[C@H](O)[C@@H](O)[C@H](O)[C@H](O)CO.CNC[C@H](O)[C@@H](O)[C@H](O)[C@H](O)CO.O=C([O-])CN(CCN(CC(=O)[O-])CC(=O)O)CCN(CC(=O)O)C(COCc1ccccc1)C(=O)[O-].[Gd+3] (stereo not shown) [Comparative Example 2a, gadobenate dimeglumine] | difficult to collect and, in case, to re-dissolve | – | – | –
2 | CNC[C@H](O)[C@@H](O)[C@H](O)[C@H](O)CO.CNC[C@H](O)[C@@H](O)[C@H](O)[C@H](O)CO.O=C([O-])CN(CCN(CC(=O)[O-])CC(=O)O)CCN(CC(=O)O)C(COCc1ccccc1)C(=O)[O-].[Gd+3] (stereo not shown) [gadobenate dimeglumine] | – | less than 1 mL | few seconds | less than one minute
